# Experimental data as given in paper PMC8422859, “A Novel Oral Arginase 1/2 Inhibitor Enhances the Antitumor Effect of PD-1 Inhibition in Murine Experimental Gliomas by Altering the Immunosuppressive Environment” (Frontiers in Oncology, 2021).
# Experiments:
# [1] = system: tumor-infiltrating immune cells in GL261 gliomas; test: Immune cells in GL261 gliomas (immunohistochemistry, flow cytometry); type: in vivo, mouse
# Description: The animals were sacrificed on the day 21 after GL261 tdTomato^+luc^+ cell implantation and perfused with 4% paraformaldehyde in PBS. Brains were removed, post-fixed for 48 h in the same fixative solution and placed in 30% sucrose in PBS at 4°C until the tissue sunk to the bottom of the flask. Tissue was frozen in Tissue Freezing Medium (Jung; Nussloch, Germany) and cut in 12 µm coronal sections using a cryostat. The slides were dried at room temperature for 2 h after being transferred from the -80°C storage. Cryosections were blocked in PBS containing 10% donkey serum and 0.1% Triton X-100 for 2 h and incubated overnight at 4°C with rabbit anti-Iba-1 and goat anti-Arg1 or with rabbit anti-CD8 antibodies. Next, sections were washed in PBS and incubated with corresponding secondary antibodies for 2 h at room temperature. All antibodies were diluted in 0.1% Triton X-100/PBS solution containing 3% donkey serum. Nuclei were counterstained with DAPI (1 µg/mL). Images were obtained using the Olympus microscope (Fluoview, FV10i). For reagent specifications, catalogue numbers, and concentrations, see the Supplementary Table 1. To quantify the tumor size, sections were stained with toluidine blue, and images were acquired using a Leica DM4000B microscope (Leica Microsystems, Wetzlar, Germany). Tumor areas were measured using ImageJ software (NIH, Bethesda, MD, USA) on every sixth brain slice, and tumor volumes were calculated as previously described ([26]).
# On day 28 after GL261 tdTomato^+luc^+ cell implantation mice were perfused transcardially with cold phosphate-buffered saline (PBS) to clear away blood cells from the brain. […] Next, cells were collected, washed with PBS and counted using NucleoCounter (Chemometec, Denmark). […]
# All antibodies were titrated prior to staining to establish the amount yielding the best stain index. Data were acquired using a BD LSR Fortessa Analyzer cytometer and analyzed with FlowJo software (v. 10.5.3, FlowJo LLC, BD). Gates were set based on FMO (fluorescence minus one) controls and back-gating analysis. […]
# [2] = system: plasma cytokines; test: Plasma cytokine analysis (Milliplex/MAGPIX); type: in vivo, mouse; settings: blood collected 2 h after last administration of OAT-1746
# Description: Measurement of pro- and anti-inflammatory cytokines was performed in blood from control and treated animals. Blood was quickly collected to EDTA containing tubes before perfusion and centrifuged (10,000 × g) for 10 min at room temperature. The plasma was collected and stored at -80°C. The levels of cytokines were measured using the Milliplex Kit (Merk-Millipore, Germany) according to the protocol. Cytokine levels were determined using the MAGPIX Multiplexing Instrument (Luminex, TX, USA) with XPonent software and analyzed with Milliplex Analyst 5.1 software. Results were expressed as pg/mL for each cytokine.
# [3] = system: human and murine T cells; design: method as in PMID 31278254; settings: cited from earlier work
# [4] = system: non-CNS tumor models; settings: cited from earlier work
compound,measurement,setting,value
CN(C)C[C@@H]1CC[C@@H](CCB(O)O)C[C@]1(N)C(=O)O [OAT-1746],percentage of microglia (CD11b+CD45low) and blood-derived macrophages (CD11b+CD45high),"[1]; flow cytometry, day 28",did not change
same,accumulation of CD8+ cells,"[1]; immunohistochemistry, day 21",did not affect
same,accumulation of Iba1+ and Arg1+ cells in gliomas,"[1]; immunohistochemistry, day 21",did not change
same,plasma levels of CCL2,[2],higher levels
same,plasma levels of CCL5,[2],reduced
same,ARG1-inhibited proliferation of human and murine T cells,[3],reversed
same,antitumor efficacy in non-CNS tumor models,[4],significant antitumor efficacy
same,toxicity in experimental animals,"[4]; multiple oral dosing, mono- or combinatorial therapies, other tumor models",no toxicity
